Experimental data as given in patent US20230331767A1, “TARGETED STEROID COMPOUNDS” (priority 2020, published 2023).

What was measured:
[1] = test system: F4/80 (mouse macrophage), CD4 (T helper cell), CD8 (cytotoxic T cell), and Ly6G (neutrophil) cells; assay: Thioglycollate-induced peritonitis, flow cytometry of peritoneal lavage cells; type: in vivo, BALB/C or Swiss Webster mice; conditions: treated group vs the untreated or vehicle, peritoneal cavity; for percentage of F4/80 macrophages: 10 nmol I.V. 48 hrs after induction stated for Compound 107
Procedure: Induced peritonitis with 1.5 mL 3% thioglycollate injected I.P. into either BALB/C or Swiss Webster mice maintained on a folate free diet for at least three weeks and treated with 10 nmol Compound 107 injected I.V. 48 hrs after induction. After an additional 48 hrs the mice were euthanized, and peritoneal lavage was performed using 2% fetal bovine serum (FBS) in phosphate buffered saline (PBS). Cells were passed through a 70 µm cell filter to remove debris then counted using a hemocytometer. Approximately 1 million cells pre-incubated in anti-CD16/32 (to block endogenous Fc receptor binding) for one hour on ice in 100 µL of 2% FBS in PBS. Then the cells incubated with at least one of the following fluorescently labeled antibodies for cell surface markers: PE-F4/80 or PE/Cy7-F4/80 (mouse macrophage), FITC-CD4 (T helper cell), eFluor780-CD8 (cytotoxic T cell), and PerCP/Cy5.5-Ly6G (neutrophil) according to the manufacturers recommended procedure on ice for 1 hour. Cells were washed twice with 1 mL of ice cold 2% FBS in PBS then suspended in 2% FBS in PBS. Controls included unstained cells as the negative control as well as the use of 1 drop of compensation beads per dye-antibody (1 µL) for a positive control incubated for 1 hour on ice and washed twice with 1 mL 2% FBS in PBS. All samples were centrifuged at 400xg for 10 min between washes, transfers and after incubation to remove supernatant.
Samples and appropriate controls were analyzed on an Attune NxT Acoustic Focusing Cytometer collecting between 10,000 and 30,000 events per sample utilizing laser lines BL1-A, BL2-A, BL3-A, and YL4-A for FITC-CD4, PE-F4/80, PerCP/Cy5.5-Ly6G and eFluor780-CD8 or PE/Cy7-F4/80, respectively. Flow cytometry data analysis involved first observing the cells run in the experiment using forward and side-scattering light (FSC and SSC, respectively). All observed cells were gated (R1) and analyzed for relative abundance of F4/80 (mouse macrophage), CD4 (T helper cell), CD8 (cytotoxic T cell), and Ly6G (neutrophil) cells within the population. Values from quadrant gating based on negative controls were then represented in bar graph form.

[2] = test system: colon; conditions: 10nmols i.v. on days 3 and 4; 2.5% DSS for 6 days; treated vs untreated colon, day 6
Procedure: 8-12 week old C57BL/6 mice were maintained on a folate free diet for at least three week dextran sodium sulfate (DSS) was added to their drinking water at a final concentration of 2.5% for 6 days. […] On day 6 the mice were euthanized by CO2 affixation followed by cervical dislocation. Then the colons were excised and prepared for histology as described previously (J Vis Exp. 2012; (60): 3678.). Briefly, the colons were cut out and the fecal contents were gently removed and washed in PBS. The colons were fixed in 10% buffered formalin for 24 hrs followed by transfer to 70% ethanol. These samples were submitted to the Purdue Veterinary Pathology lab where they were embedded in paraffin, sectioned, and stained with hematoxylin and eosin.

[3] = test system: macrophage; assay: Flow cytometry of macrophage, CD 86 expression (M1 marker); type: cell-based, ND4 mice; conditions: 20 nanomolar compound, with or without folate-glucosamine competition; treatment for 24 hours
Procedure: FIG. 6 is an example of compound 101 in flow cytometry of macrophage gated on F4/80 to show CD 206 expression (a marker for M2, anti-inflammatory macrophages). Briefly, 1.5 mL of 3% thioglycolate were injected into the intraperitoneal cavity of 12-week-old ND4 mice. Three days later the macrophages were isolated by intraperitoneal lavage and plated in a 12-well dish and incubated at 37° C./5% CO2. […] 1 or 20 nanomolar of the compound in FIG. 1 plus 100-fold excess folate-glucosamine (to show receptor-specific binding) or untreated control or 10 nanomolar free dexamethasone (to show the effect of the free drug) and allowed to incubate at 37° C./5% CO2 for the allotted time. […] The samples were then washed 3 times with ice-cold 1% FBS in PBS before being analyzed by flow cytometry.
FIG. 8 is an example of Compound 101 in flow cytometry of macrophage to show CD 86 expression with controls.

[4] = test system: macrophage; assay: Flow cytometry of thioglycolate-elicited peritoneal macrophages gated on F4/80, CD 206 expression (M2 marker); type: cell-based, ND4 mice; conditions: 20 nanomolar; targeted group vs competition group (plus 100-fold excess folate-glucosamine); macrophage gated on F4/80
Procedure: FIG. 6 is an example of compound 101 in flow cytometry of macrophage gated on F4/80 to show CD 206 expression (a marker for M2, anti-inflammatory macrophages). Briefly, 1.5 mL of 3% thioglycolate were injected into the intraperitoneal cavity of 12-week-old ND4 mice. Three days later the macrophages were isolated by intraperitoneal lavage and plated in a 12-well dish and incubated at 37° C./5% CO2. After 24 hours, the media was replaced with media containing 20 nanomolar the compound in FIGS. 1 or 20 nanomolar of the compound in FIG. 1 plus 100-fold excess folate-glucosamine (to show receptor-specific binding) or untreated control or 10 nanomolar free dexamethasone (to show the effect of the free drug) and allowed to incubate at 37° C./5% CO2 for the allotted time. Then 3 days later the cells were detached and incubated with the corresponding fluorescently labeled antibodies for 1 hour at 4° C. in 1% fetal bovine serum (FBS) in phosphate- buffered saline (PBS). The samples were then washed 3 times with ice-cold 1% FBS in PBS before being analyzed by flow cytometry.

For “Folate-PEG12(CH2)-Pyrophosphate-Dexamethasone [Compound 108]”, the “percentage of FITC-CD4 (T helper cell)” value [1] was “lower”, the “percentage of PerCP/Cy5.5-Ly6G (neutrophil)” value [1] was “lower” and the “percentage of eFluor780-CD8 (cytotoxic T cell)” value [1] was “lower”. The “percentage of F4/80 macrophages” value [1] was “lower”.
With “Folate-PEG2-Hydrolink-DimethylCysteine-Carbamate-Dexamethasone [Compound 106]” the “percentage of F4/80 macrophages” value [1] was “lower”.
With “Folate-AlbuminBinder-PEG2-Hydrolink-DimethylCysteine-Carbamate-Dexamethasone [Compound 107]” the “crypt architecture (colon histology)” value [2] was “more crypt architecture”, the “infiltrating immune cells (colon histology)” value [2] was “fewer infiltrating immune cells” and the “number of goblet cells (colon histology)” value [2] was “higher number of goblet cells”. The “percentage of FITC-CD4 (T helper cell)” value [1] was “lower”, the “percentage of PerCP/Cy5.5-Ly6G (neutrophil)” value [1] was “lower” and the “percentage of eFluor780-CD8 (cytotoxic T cell)” value [1] was “lower”. For the same molecule, the “percentage of F4/80 macrophages” value [1] was “lower”.
For `C[C@H]1C[C@@H]2[C@H]3CCC4=CC(=O)C=C[C@@]4(C)[C@]3(F)[C@H](O)C[C@@]2(C)[C@]1(O)C(=O)COC(=O)NCCSSC(C)(C)C(NC(=O)c1ccc(NCc2cnc3nc(N)[nH]c(=O)c3n2)cc1)C(=O)O` (some centres unmarked) [Compound 101, Folate-Hydrolink-Cysteine-Carbonate-Dexamethasone], the “CD 86 expression (marker for M1, pro-inflammatory macrophages)” value [3] was “no observable differences” and the “CD 206 expression (marker for M2, anti-inflammatory macrophages)” value [4] was “Increased expression of CD 206 in the targeted group over the competition group”.
